Laboratory results as given in ChEMBL document CHEMBL1152141, “Pyrrolo-pyrimidones: a novel class of MK2 inhibitors with potent cellular activity” (Bioorg Med Chem Lett, 2008).
≈ marks a conversion by molar mass, not a printed value. One block for each compound: values may come before it.

Columns and labels:
[1] = test system: PBMC; assay: Inhibition of LPS-stimulated TNFalpha release from human PBMC after 3 hrs
[2] = molecular target: Receptor tyrosine-protein kinase erbB-2 (Homo sapiens, UniProt P04626); assay: Inhibition of HER2
[3] = molecular target: MAP kinase p38 (Homo sapiens, UniProt O15264+Q15759+Q16539+P53778); assay: Inhibition of human p38; format: protein assay
[4] = molecular target: Tyrosine-protein kinase BTK (Homo sapiens, UniProt Q06187); assay: Inhibition of Btk
[5] = molecular target: Mitogen-activated protein kinase 8 (Homo sapiens, UniProt P45983); assay: Inhibition of JNK1
[6] = molecular target: Epidermal growth factor receptor (Homo sapiens, UniProt P00533)
[7] = molecular target: Cyclin-dependent kinase 2 (Homo sapiens, UniProt P24941); assay: Inhibition of CDK2
[8] = molecular target: Vascular endothelial growth factor receptor 2 (Homo sapiens, UniProt P35968); assay: Inhibition of KDR
[9] = molecular target: Mitogen-activated protein kinase 1 (Homo sapiens, UniProt P28482); assay: Inhibition of ERK2
[10] = molecular target: Tyrosine-protein kinase JAK3 (Homo sapiens, UniProt P52333); assay: Inhibition of JAK3
[11] = molecular target: Insulin receptor (Homo sapiens, UniProt P06213); assay: Inhibition of Ins1R
[12] = molecular target: Glycogen synthase kinase-3 beta (Homo sapiens, UniProt P49841); assay: Inhibition of GSK3b
[13] = molecular target: MAP kinase-activated protein kinase 2 (Homo sapiens, UniProt P49137)
[14] = molecular target: ALK tyrosine kinase receptor (Homo sapiens, UniProt Q9UM73); assay: Inhibition of Alk
[15] = molecular target: Aurora kinase A (Homo sapiens, UniProt O14965); assay: Inhibition of Aurora A
[16] = molecular target: MAP kinase-activated protein kinase 5 (Homo sapiens, UniProt Q8IW41); assay: Inhibition of MK5
[17] = molecular target: Mast/stem cell growth factor receptor Kit (Homo sapiens, UniProt P10721); assay: Inhibition of c-Kit
[18] = molecular target: Tyrosine-protein kinase JAK2 (Homo sapiens, UniProt O60674); assay: Inhibition of JAK2
[19] = Thermodynamic solubility at pH 6.8; format: physicochemical; conditions: buffer
[20] = molecular target: Fibroblast growth factor receptor 4 (Homo sapiens, UniProt P22455); assay: Inhibition of FGFR4
[21] = molecular target: Ephrin type-B receptor 4 (Homo sapiens, UniProt P54760); assay: Inhibition of EphB4
[22] = molecular target: Ephrin type-A receptor 4 (Homo sapiens, UniProt P54764); assay: Inhibition of EphA4
[23] = molecular target: Mitogen-activated protein kinase 9 (Homo sapiens, UniProt P45984); assay: Inhibition of JNK2
[24] = molecular target: Hepatocyte growth factor receptor (Homo sapiens, UniProt P08581); assay: Inhibition of c-Met
[25] = Inhibition of PKA
[26] = molecular target: Heat shock protein beta-1 (Homo sapiens) (UniProt P04792); assay: Inhibition of LPS-stimulated hsp27 phosphorylation in 1 hr pretreated human THP1 cells by Western blot; format: cell-based; conditions: THP-1
[27] = molecular target: Insulin-like growth factor 1 receptor (Homo sapiens, UniProt P08069); assay: Inhibition of IGF1R
[28] = molecular target: RAC-alpha serine/threonine-protein kinase (Homo sapiens, UniProt P31749); assay: Inhibition of PKB
[29] = molecular target: Tyrosine-protein kinase SYK (Homo sapiens, UniProt P43405)

Chain of MAP kinase-activated protein kinase 5 (Q8IW41 whole entry): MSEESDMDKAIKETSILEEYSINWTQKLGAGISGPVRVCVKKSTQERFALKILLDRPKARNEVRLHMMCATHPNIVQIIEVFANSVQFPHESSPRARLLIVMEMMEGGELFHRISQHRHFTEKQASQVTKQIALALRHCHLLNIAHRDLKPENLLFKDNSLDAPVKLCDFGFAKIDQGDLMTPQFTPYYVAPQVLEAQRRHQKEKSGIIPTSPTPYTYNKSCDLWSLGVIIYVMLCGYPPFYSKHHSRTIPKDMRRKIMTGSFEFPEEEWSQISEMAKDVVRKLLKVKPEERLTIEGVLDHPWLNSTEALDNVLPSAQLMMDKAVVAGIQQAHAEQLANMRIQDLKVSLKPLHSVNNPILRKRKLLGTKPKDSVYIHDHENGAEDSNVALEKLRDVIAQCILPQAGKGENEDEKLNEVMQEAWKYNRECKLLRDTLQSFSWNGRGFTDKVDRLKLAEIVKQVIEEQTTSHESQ
Chain of Tyrosine-protein kinase JAK3 (P52333 whole entry): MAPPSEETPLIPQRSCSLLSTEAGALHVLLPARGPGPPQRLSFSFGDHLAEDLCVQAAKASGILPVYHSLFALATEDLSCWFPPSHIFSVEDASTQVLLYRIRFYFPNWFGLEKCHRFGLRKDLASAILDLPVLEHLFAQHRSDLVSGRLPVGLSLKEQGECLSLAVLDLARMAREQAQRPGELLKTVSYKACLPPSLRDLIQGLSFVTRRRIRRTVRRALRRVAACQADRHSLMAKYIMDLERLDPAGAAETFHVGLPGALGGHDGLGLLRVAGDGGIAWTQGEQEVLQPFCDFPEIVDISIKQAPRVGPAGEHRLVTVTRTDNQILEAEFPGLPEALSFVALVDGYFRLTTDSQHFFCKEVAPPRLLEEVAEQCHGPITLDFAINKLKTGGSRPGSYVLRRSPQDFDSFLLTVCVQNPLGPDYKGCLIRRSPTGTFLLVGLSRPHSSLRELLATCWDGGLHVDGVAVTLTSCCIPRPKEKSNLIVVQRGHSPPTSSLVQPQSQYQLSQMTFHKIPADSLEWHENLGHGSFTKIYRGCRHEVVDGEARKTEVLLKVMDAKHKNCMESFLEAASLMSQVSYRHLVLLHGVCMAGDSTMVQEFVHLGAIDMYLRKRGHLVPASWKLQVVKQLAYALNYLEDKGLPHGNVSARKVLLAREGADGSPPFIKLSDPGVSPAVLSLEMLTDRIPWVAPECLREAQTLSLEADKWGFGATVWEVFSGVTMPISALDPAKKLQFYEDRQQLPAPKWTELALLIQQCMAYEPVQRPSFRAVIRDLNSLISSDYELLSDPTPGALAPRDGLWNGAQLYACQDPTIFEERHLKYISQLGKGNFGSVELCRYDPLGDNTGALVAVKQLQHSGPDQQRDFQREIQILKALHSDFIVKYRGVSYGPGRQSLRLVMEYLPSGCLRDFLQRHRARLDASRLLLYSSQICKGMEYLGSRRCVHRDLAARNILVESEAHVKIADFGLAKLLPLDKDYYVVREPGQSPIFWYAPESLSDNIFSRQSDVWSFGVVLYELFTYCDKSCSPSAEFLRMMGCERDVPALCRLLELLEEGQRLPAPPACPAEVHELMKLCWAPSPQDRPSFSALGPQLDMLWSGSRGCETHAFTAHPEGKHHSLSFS
Chain of Glycogen synthase kinase-3 beta (P49841 whole entry): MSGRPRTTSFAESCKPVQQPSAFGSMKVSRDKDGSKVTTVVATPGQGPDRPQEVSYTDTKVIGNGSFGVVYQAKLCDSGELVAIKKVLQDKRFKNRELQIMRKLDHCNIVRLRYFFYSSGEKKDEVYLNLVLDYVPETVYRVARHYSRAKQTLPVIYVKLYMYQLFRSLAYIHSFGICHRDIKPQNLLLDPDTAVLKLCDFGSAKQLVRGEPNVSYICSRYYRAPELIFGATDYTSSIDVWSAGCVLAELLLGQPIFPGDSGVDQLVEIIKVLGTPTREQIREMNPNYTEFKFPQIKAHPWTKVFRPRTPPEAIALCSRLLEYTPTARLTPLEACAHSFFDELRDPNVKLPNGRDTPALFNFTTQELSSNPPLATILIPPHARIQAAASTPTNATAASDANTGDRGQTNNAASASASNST
Chain of Fibroblast growth factor receptor 4 (P22455 whole entry): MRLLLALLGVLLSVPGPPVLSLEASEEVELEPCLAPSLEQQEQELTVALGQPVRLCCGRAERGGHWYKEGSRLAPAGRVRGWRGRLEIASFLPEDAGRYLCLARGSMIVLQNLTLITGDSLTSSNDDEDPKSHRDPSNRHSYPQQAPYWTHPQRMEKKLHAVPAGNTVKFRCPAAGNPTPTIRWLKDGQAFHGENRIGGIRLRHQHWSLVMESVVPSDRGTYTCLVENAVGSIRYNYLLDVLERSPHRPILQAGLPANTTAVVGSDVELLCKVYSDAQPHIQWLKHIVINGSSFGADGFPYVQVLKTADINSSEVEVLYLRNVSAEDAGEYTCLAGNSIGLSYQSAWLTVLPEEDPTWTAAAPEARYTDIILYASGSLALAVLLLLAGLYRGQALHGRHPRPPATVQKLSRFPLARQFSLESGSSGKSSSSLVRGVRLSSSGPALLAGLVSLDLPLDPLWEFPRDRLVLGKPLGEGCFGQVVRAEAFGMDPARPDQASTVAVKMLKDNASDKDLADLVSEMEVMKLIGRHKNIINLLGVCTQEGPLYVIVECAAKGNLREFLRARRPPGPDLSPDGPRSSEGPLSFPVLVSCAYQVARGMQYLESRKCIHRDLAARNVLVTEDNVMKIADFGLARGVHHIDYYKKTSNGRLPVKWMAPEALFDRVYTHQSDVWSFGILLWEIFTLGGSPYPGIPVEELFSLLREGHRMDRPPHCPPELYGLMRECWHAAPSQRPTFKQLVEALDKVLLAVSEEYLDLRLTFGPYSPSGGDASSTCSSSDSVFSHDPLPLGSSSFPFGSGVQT
Chain of Hepatocyte growth factor receptor (P08581 whole entry): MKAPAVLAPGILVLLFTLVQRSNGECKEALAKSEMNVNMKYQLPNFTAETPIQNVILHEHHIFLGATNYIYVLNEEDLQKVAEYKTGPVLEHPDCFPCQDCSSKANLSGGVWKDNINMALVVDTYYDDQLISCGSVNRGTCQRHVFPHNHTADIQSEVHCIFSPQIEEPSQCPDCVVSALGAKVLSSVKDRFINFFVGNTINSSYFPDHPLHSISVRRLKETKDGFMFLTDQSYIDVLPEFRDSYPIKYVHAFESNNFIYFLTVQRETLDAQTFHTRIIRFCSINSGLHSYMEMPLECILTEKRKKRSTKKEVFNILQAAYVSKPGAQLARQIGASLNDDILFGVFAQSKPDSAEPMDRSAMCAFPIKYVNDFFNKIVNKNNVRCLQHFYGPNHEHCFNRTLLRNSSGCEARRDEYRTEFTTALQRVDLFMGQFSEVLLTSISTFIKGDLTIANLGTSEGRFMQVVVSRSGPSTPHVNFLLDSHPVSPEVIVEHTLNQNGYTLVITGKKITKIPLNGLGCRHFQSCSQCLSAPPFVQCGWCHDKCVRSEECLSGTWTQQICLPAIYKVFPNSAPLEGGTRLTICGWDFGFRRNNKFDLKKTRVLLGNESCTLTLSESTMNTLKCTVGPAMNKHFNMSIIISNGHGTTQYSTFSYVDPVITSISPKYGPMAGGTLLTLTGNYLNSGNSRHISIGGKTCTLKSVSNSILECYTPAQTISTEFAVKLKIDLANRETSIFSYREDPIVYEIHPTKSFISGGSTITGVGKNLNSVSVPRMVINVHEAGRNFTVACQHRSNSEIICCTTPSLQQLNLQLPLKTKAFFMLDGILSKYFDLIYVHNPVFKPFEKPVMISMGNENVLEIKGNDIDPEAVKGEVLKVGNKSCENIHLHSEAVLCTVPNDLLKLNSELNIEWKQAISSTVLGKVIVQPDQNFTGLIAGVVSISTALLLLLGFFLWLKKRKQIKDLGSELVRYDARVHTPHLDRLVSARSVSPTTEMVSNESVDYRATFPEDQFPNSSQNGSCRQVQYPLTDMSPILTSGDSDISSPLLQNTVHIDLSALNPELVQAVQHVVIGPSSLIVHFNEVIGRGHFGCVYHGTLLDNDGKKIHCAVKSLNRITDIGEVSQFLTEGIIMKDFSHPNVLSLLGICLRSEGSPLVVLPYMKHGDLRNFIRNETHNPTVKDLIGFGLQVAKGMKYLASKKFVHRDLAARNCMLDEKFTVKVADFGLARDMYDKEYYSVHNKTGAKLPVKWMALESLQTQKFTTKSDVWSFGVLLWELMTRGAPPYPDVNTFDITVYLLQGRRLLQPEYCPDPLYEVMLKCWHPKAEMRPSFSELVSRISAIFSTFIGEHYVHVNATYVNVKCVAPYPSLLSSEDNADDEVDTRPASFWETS
Chain of Mitogen-activated protein kinase 9 (P45984 whole entry): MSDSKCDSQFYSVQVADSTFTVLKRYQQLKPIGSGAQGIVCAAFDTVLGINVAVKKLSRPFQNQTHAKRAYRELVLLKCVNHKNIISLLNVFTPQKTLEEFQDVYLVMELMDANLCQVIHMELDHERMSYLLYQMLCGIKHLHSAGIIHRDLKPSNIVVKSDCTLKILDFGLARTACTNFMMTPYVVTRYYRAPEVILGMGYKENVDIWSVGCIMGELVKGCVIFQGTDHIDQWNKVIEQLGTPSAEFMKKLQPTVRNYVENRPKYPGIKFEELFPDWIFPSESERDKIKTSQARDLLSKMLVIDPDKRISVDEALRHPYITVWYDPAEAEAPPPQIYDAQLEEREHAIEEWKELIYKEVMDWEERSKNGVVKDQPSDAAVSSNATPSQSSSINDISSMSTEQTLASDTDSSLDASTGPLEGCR
Chain of Mitogen-activated protein kinase 1 (P28482 whole entry): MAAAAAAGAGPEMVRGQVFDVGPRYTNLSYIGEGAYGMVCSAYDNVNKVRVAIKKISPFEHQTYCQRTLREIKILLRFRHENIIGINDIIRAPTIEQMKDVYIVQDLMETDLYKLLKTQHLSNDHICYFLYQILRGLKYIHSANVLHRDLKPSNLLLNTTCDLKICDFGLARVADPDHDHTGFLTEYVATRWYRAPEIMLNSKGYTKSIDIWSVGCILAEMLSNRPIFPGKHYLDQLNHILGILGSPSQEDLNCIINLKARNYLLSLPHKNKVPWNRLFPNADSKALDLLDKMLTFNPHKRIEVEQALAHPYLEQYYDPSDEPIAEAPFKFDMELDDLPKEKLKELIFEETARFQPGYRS

Compound: CCN(CC)Cc1ccc(/C=C/c2cc(-c3cc4c(=O)[nH]cnc4[nH]3)ccn2)cc1
IC50 [1]: 380 nM

Compound: O=c1[nH]c(Cc2ccccc2)nc2[nH]c(-c3ccnc(/C=C/c4ccccc4)c3)cc12
IC50 [1]: > 10000 nM

Compound: O=c1[nH]cnc2[nH]c(-c3ccnc(/C=C/c4ccccc4)c3)cc12
IC50 [1]: 2300 nM

Compound: COc1ccc(-c2cc(-c3cc4c(=O)[nH]cnc4[nH]3)ccn2)cc1
IC50 [1]: > 10000 nM

Compound: CN(C)CCOc1ccc(/C=C/c2cc(-c3cc4c(=O)[nH]cnc4[nH]3)ccn2)cc1
IC50 [2]: 9.5 µM | IC50 [1]: 40 nM | IC50 [3]: > 10 µM | IC50 [4]: > 10 µM | IC50 [5]: 960 nM | IC50 [6]: 3.3 µM | IC50 [7]: 8.2 µM | IC50 [8]: 190 nM | IC50 [9]: 2600 nM | IC50 [10]: 1000 nM | IC50 [11]: 7.8 µM | IC50 [12]: 530 nM | IC50 [13]: 82 nM | IC50 [14]: 4.1 µM | IC50 [15]: 280 nM | IC50 [16]: 28 nM | IC50 [17]: 6.1 µM | IC50 [18]: 3600 nM | solubility thermodynamic [19]: 410 µg/mL (≈ 1020 µM) | IC50 [20]: 6.8 µM | IC50 [21]: 1400 nM | IC50 [22]: 5.6 µM | IC50 [23]: 240 nM | IC50 [24]: 140 nM | IC50 [25]: > 10 µM | Activity [26]: Dose-dependent effect | IC50 [27]: 6.4 µM | IC50 [28]: > 10 µM

IC50 [2]: > 10 µM | IC50 [3]: > 10 µM | IC50 [4]: > 10 µM | IC50 [5]: 4000 nM | IC50 [7]: > 10 µM | IC50 [8]: 100 nM | IC50 [9]: 1100 nM | IC50 [10]: 310 nM | IC50 [11]: > 10 µM | IC50 [12]: 300 nM | IC50 [13]: 51 nM | IC50 [29]: 6.2 µM | IC50 [14]: > 10 µM | IC50 [15]: 93 nM | IC50 [16]: 24 nM | IC50 [17]: 5.2 µM | IC50 [18]: 1300 nM | solubility thermodynamic [19]: 41 µg/mL (≈ 99.2 µM) | IC50 [20]: > 10 µM | IC50 [21]: 1700 nM | IC50 [22]: > 10 µM | IC50 [23]: 950 nM | IC50 [24]: 85 nM | IC50 [25]: 6.7 µM | Activity [26]: Dose-dependent effect | IC50 [27]: > 10 µM | IC50 [28]: > 10 µM
Compound: O=c1[nH]cnc2[nH]c(-c3ccnc(/C=C/c4ccc(CN5CCOCC5)cc4)c3)cc12
IC50 [1]: 110 nM

solubility thermodynamic [19]: 3 µg/mL (≈ 9.03 µM)
Compound: O=c1[nH]cnc2[nH]c(-c3ccnc(/C=C/c4ccc(F)cc4)c3)cc12
IC50 [1]: 350 nM

Compound: Cc1nc2[nH]c(-c3ccnc(/C=C/c4ccccc4)c3)cc2c(=O)[nH]1
IC50 [1]: 1100 nM

Compound: O=C(Nc1cc(-c2cc3c(=O)[nH]cnc3[nH]2)ccn1)c1ccc(C2CCCC2)cc1
IC50 [1]: 10000 nM

Compound: Nc1nc2[nH]c(-c3ccnc(/C=C/c4ccccc4)c3)cc2c(=O)[nH]1
IC50 [1]: 1500 nM

solubility thermodynamic [19]: 9 µg/mL (≈ 21.1 µM)
Compound: O=C(c1ccc(/C=C/c2cc(-c3cc4c(=O)[nH]cnc4[nH]3)ccn2)cc1)N1CCOCC1
IC50 [1]: 150 nM
